Reference: patent US20250066286A1, “COMPOSITIONS OF (Z)-ENDOXIFEN AND METHODS OF ENRICHMENT THEREOF” (Atossa Therapeutics, Inc., priority 2022, published 2025)

What was measured:
[1] = Competitive slurries of (Z)-endoxifen polymorphs (XRPD); assay type: physicochemical; settings: slurries of Forms I, IV and VII in various solvents, 3 days at room temperature or 24 hours at high temperature
Procedure: This example covers conversions of (Z)-endoxifen polymorphs in solvent slurries. Slurries of Forms I and VII were generated with Forms I, IV, and VII in various solvents, and incubated for either 3 days at room temperature or for 24 hours at high temperature. Following these incubations, polymorphs were collected from the slurries and characterized by XRPD.

[2] = Stability of (Z)-Endoxifen in acetone (HPLC peak table over time); assay type: physicochemical; settings: for E-form, RT 14.58, RRT 0.96 / HPLC peak RT 13.84, RRT 0.91 / HPLC peak RT 20.32, RRT 1.34 / HPLC peak RT 20.51, RRT 1.35 / HPLC peak RT 21.68, RRT 1.43 / HPLC peak RT 22.88, RRT 1.51 / HPLC peak RT 27.15, RRT 1.79 / HPLC peak RT 27.21, RRT 1.80 / HPLC peak RT 27.45, RRT 1.81 / HPLC peak RT 27.88, RRT 1.84 / HPLC peak RT 4.37, RRT 0.28 / Z-form, RT 15.13, RRT 1.00: acetone at reflux (56° C.); for HPLC peak RT 4.37, RRT 0.28 / Z-form, RT 15.13, RRT 1.00 / Z-form, RT 16.25, RRT 1.00: in % (unit assumed); for E-form, RT 15.40, RRT 0.95 / HPLC peak RT 3.14, RRT 0.19 / HPLC peak RT 4.25, RRT 0.26 / HPLC peak RT 14.68, RRT 0.90 / HPLC peak RT 17.69, RRT 1.09 / HPLC peak RT 20.47, RRT 1.26 / HPLC peak RT 20.80, RRT 1.28 / HPLC peak RT 21.56, RRT 1.33 / HPLC peak RT 21.83, RRT 1.34 / HPLC peak RT 22.68, RRT 1.39 / HPLC peak RT 22.76, RRT 1.40 / Z-form, RT 16.25, RRT 1.00: acetone, 40° C.

CC/C(=C(\c1ccc(O)cc1)c1ccc(OCCNC)cc1)c1ccccc1 [(Z)-endoxifen, (Z)-4-(1-(4-(2-(methylamino)ethoxy)phenyl)-2-phenylbut-1-enyl)phenol]
Polymorphic form recovered (XRPD) [1]: majority of slurries yielded high purity Form I, some of the slurries yielded Form I with traces of Form IV or Form VII, and six slurries yielded primarily Form IV
E-form, RT 14.58, RRT 0.96 ([2]; 3 hr): 0.54%
HPLC peak RT 13.84, RRT 0.91 ([2]; 3 hr): 0.05%
HPLC peak RT 20.32, RRT 1.34 ([2]; 3 hr): 0.37%
HPLC peak RT 20.51, RRT 1.35 ([2]; 3 hr): 0.06%
HPLC peak RT 21.68, RRT 1.43 ([2]; 3 hr): 0.16%
HPLC peak RT 22.88, RRT 1.51 ([2]; 3 hr): 0.13%
HPLC peak RT 27.15, RRT 1.79 ([2]; 3 hr): 0.03%
HPLC peak RT 27.21, RRT 1.80 ([2]; 3 hr): 0.05%
HPLC peak RT 27.45, RRT 1.81 ([2]; 3 hr): 0.24%
HPLC peak RT 27.88, RRT 1.84 ([2]; 3 hr): 0.04%
HPLC peak RT 4.37, RRT 0.28 ([2]; 3 hr): 0.96
Z-form, RT 15.13, RRT 1.00 ([2]; 3 hr): 96.67
E-form, RT 14.58, RRT 0.96 ([2]; 19 hr): 1.01%
HPLC peak RT 13.84, RRT 0.91 ([2]; 19 hr): 0.04%
HPLC peak RT 20.32, RRT 1.34 ([2]; 19 hr): 0.12%
HPLC peak RT 20.51, RRT 1.35 ([2]; 19 hr): 0.04%
HPLC peak RT 21.68, RRT 1.43 ([2]; 19 hr): 0.14%
HPLC peak RT 22.88, RRT 1.51 ([2]; 19 hr): 0.09%
HPLC peak RT 27.15, RRT 1.79 ([2]; 19 hr): 0.02%
HPLC peak RT 27.21, RRT 1.80 ([2]; 19 hr): 0.04%
HPLC peak RT 27.45, RRT 1.81 ([2]; 19 hr): 0.22%
HPLC peak RT 27.88, RRT 1.84 ([2]; 19 hr): 0.04%
HPLC peak RT 4.37, RRT 0.28 ([2]; 19 hr): 5.74
Z-form, RT 15.13, RRT 1.00 ([2]; 19 hr): 91.92
E-form, RT 14.58, RRT 0.96 ([2]; 27 hr): 1.53%
HPLC peak RT 13.84, RRT 0.91 ([2]; 27 hr): 0.04%
HPLC peak RT 20.32, RRT 1.34 ([2]; 27 hr): 0.09%
HPLC peak RT 20.51, RRT 1.35 ([2]; 27 hr): 0.1%
HPLC peak RT 21.68, RRT 1.43 ([2]; 27 hr): 0.15%
HPLC peak RT 22.88, RRT 1.51 ([2]; 27 hr): 0.06%
HPLC peak RT 27.15, RRT 1.79 ([2]; 27 hr): 0.03%
HPLC peak RT 27.21, RRT 1.80 ([2]; 27 hr): 0.04%
HPLC peak RT 27.45, RRT 1.81 ([2]; 27 hr): 0.22%
HPLC peak RT 27.88, RRT 1.84 ([2]; 27 hr): 0.04%
HPLC peak RT 4.37, RRT 0.28 ([2]; 27 hr): 7.93
Z-form, RT 15.13, RRT 1.00 ([2]; 27 hr): 89.05
E-form, RT 14.58, RRT 0.96 ([2]; 43 hr): 5.33%
HPLC peak RT 13.84, RRT 0.91 ([2]; 43 hr): 0.04%
HPLC peak RT 20.32, RRT 1.34 ([2]; 43 hr): 0.13%
HPLC peak RT 20.51, RRT 1.35 ([2]; 43 hr): 0.05%
HPLC peak RT 21.68, RRT 1.43 ([2]; 43 hr): 0.13%
HPLC peak RT 22.88, RRT 1.51 ([2]; 43 hr): 0.05%
HPLC peak RT 27.15, RRT 1.79 ([2]; 43 hr): 0.04%
HPLC peak RT 27.21, RRT 1.80 ([2]; 43 hr): 0.05%
HPLC peak RT 27.45, RRT 1.81 ([2]; 43 hr): 0.15%
HPLC peak RT 27.88, RRT 1.84 ([2]; 43 hr): 0.04%
HPLC peak RT 4.37, RRT 0.28 ([2]; 43 hr): 12.64
Z-form, RT 15.13, RRT 1.00 ([2]; 43 hr): 80.36
E-form, RT 14.58, RRT 0.96 ([2]; T0): 0.3%
HPLC peak RT 13.84, RRT 0.91 ([2]; T0): 0.04%
HPLC peak RT 20.32, RRT 1.34 ([2]; T0): 0.04%
HPLC peak RT 20.51, RRT 1.35 ([2]; T0): 0.12%
HPLC peak RT 21.68, RRT 1.43 ([2]; T0): 0.15%
HPLC peak RT 22.88, RRT 1.51 ([2]; T0): 0.03%
HPLC peak RT 27.15, RRT 1.79 ([2]; T0): 0.03%
HPLC peak RT 27.21, RRT 1.80 ([2]; T0): 0.05%
HPLC peak RT 27.45, RRT 1.81 ([2]; T0): 0.17%
HPLC peak RT 27.88, RRT 1.84 ([2]; T0): 0.04%
HPLC peak RT 4.37, RRT 0.28 ([2]; T0): 0.05
Z-form, RT 15.13, RRT 1.00 ([2]; T0): 98.67
E-form, RT 15.40, RRT 0.95 ([2]; 4 hr): 0.78%
HPLC peak RT 3.14, RRT 0.19 ([2]; 4 hr): 0.15%
HPLC peak RT 4.25, RRT 0.26 ([2]; 4 hr): 0.57
HPLC peak RT 14.68, RRT 0.90 ([2]; 4 hr): 0.04%
HPLC peak RT 17.69, RRT 1.09 ([2]; 4 hr): 0.08%
HPLC peak RT 20.47, RRT 1.26 ([2]; 4 hr): 0.04
HPLC peak RT 20.80, RRT 1.28 ([2]; 4 hr): 0.15%
HPLC peak RT 21.56, RRT 1.33 ([2]; 4 hr): 0.08%
HPLC peak RT 21.83, RRT 1.34 ([2]; 4 hr): 0.1%
HPLC peak RT 22.68, RRT 1.39 ([2]; 4 hr): 0.1%
HPLC peak RT 22.76, RRT 1.40 ([2]; 4 hr): 0.08%
Z-form, RT 16.25, RRT 1.00 ([2]; 4 hr): 97.28
E-form, RT 15.40, RRT 0.95 ([2]; 20 hr): 1.03%
HPLC peak RT 3.14, RRT 0.19 ([2]; 20 hr): 0.11%
HPLC peak RT 4.25, RRT 0.26 ([2]; 20 hr): 2.00
HPLC peak RT 14.68, RRT 0.90 ([2]; 20 hr): 0.04%
HPLC peak RT 17.69, RRT 1.09 ([2]; 20 hr): 0.08%
HPLC peak RT 20.47, RRT 1.26 ([2]; 20 hr): 0.05
HPLC peak RT 20.80, RRT 1.28 ([2]; 20 hr): 0.21%
HPLC peak RT 21.56, RRT 1.33 ([2]; 20 hr): 0.08%
HPLC peak RT 21.83, RRT 1.34 ([2]; 20 hr): 0.08%
HPLC peak RT 22.68, RRT 1.39 ([2]; 20 hr): 0.09%
HPLC peak RT 22.76, RRT 1.40 ([2]; 20 hr): 0.01%
Z-form, RT 16.25, RRT 1.00 ([2]; 20 hr): 95.35
E-form, RT 15.40, RRT 0.95 ([2]; 24 hr): 1.14%
HPLC peak RT 3.14, RRT 0.19 ([2]; 24 hr): 0.13%
HPLC peak RT 4.25, RRT 0.26 ([2]; 24 hr): 2.81
HPLC peak RT 14.68, RRT 0.90 ([2]; 24 hr): 0.04%
HPLC peak RT 17.69, RRT 1.09 ([2]; 24 hr): 0.09%
HPLC peak RT 20.47, RRT 1.26 ([2]; 24 hr): 0.05
HPLC peak RT 20.80, RRT 1.28 ([2]; 24 hr): 0.17%
HPLC peak RT 21.56, RRT 1.33 ([2]; 24 hr): 0.09%
HPLC peak RT 21.83, RRT 1.34 ([2]; 24 hr): 0.01%
HPLC peak RT 22.68, RRT 1.39 ([2]; 24 hr): 0.07%
HPLC peak RT 22.76, RRT 1.40 ([2]; 24 hr): 0.02%
Z-form, RT 16.25, RRT 1.00 ([2]; 24 hr): 94.73
E-form, RT 15.40, RRT 0.95 ([2]; 28 hr): 1.26%
HPLC peak RT 3.14, RRT 0.19 ([2]; 28 hr): 0.11%
HPLC peak RT 4.25, RRT 0.26 ([2]; 28 hr): 3.14
HPLC peak RT 14.68, RRT 0.90 ([2]; 28 hr): 0.04%
HPLC peak RT 17.69, RRT 1.09 ([2]; 28 hr): 0.1%
HPLC peak RT 20.47, RRT 1.26 ([2]; 28 hr): 0.06
HPLC peak RT 20.80, RRT 1.28 ([2]; 28 hr): 0.19%
HPLC peak RT 21.56, RRT 1.33 ([2]; 28 hr): 0.09%
HPLC peak RT 21.83, RRT 1.34 ([2]; 28 hr): 0.01%
HPLC peak RT 22.68, RRT 1.39 ([2]; 28 hr): 0.09%
HPLC peak RT 22.76, RRT 1.40 ([2]; 28 hr): 0.02%
Z-form, RT 16.25, RRT 1.00 ([2]; 28 hr): 93.99
E-form, RT 15.40, RRT 0.95 ([2]; T0): 0.65%
HPLC peak RT 3.14, RRT 0.19 ([2]; T0): 0.16%
HPLC peak RT 4.25, RRT 0.26 ([2]; T0): 0.12
HPLC peak RT 14.68, RRT 0.90 ([2]; T0): 0.04%
HPLC peak RT 17.69, RRT 1.09 ([2]; T0): 0.08%
HPLC peak RT 20.47, RRT 1.26 ([2]; T0): 0.03
HPLC peak RT 20.80, RRT 1.28 ([2]; T0): 0.07%
HPLC peak RT 21.56, RRT 1.33 ([2]; T0): 0.08%
HPLC peak RT 21.83, RRT 1.34 ([2]; T0): 0.07%
HPLC peak RT 22.68, RRT 1.39 ([2]; T0): 0.03%
HPLC peak RT 22.76, RRT 1.40 ([2]; T0): 0.06%
Z-form, RT 16.25, RRT 1.00 ([2]; T0): 98.28
Stability of (Z)-endoxifen produced from methods using acetone recrystallization only ([2]; summary of TABLES 2 and 3): unstable
